Measurements reported in ChEMBL document CHEMBL1201862, “PubChem BioAssay data set” (2004).
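1) Cells in 96-well plates. 2) Compound, 48 h, 5 concentrations. 3) Linear interpolation between surrounding doses. 4) Unreached endpoint = highest concentration. GI50 marks 50% less growth.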 Activity calls are given as the source filed them. Rule as the data show it: active = GI50 up to about 1.1 µM and inactive = higher.

What was measured:
Experiment in all cases: inhibition of tumour cell growth, NCI panel, 48 h
[1] = test system: 786-0
[2] = test system: A498
[3] = test system: A549
[4] = test system: ACHN
[5] = test system: CAKI-1
[6] = test system: CCRF-CEM
[7] = test system: COLO 205
[8] = test system: DLD-1
[9] = test system: DMS-114
[10] = test system: DMS-273
[11] = test system: EKVX
[12] = test system: HCC 2998
[13] = test system: HCT-116
[14] = test system: HCT-15
[15] = test system: HL-60
[16] = test system: HOP-18
[17] = test system: HOP-62
[18] = test system: HT-29
[19] = test system: IGROV-1
[20] = test system: K562
[21] = test system: KM-20L2
[22] = test system: KM12
[23] = test system: LOX IMVI
[24] = test system: LXFL 529
[25] = test system: M14
[26] = test system: M19-MEL
[27] = test system: MOLT-4
[28] = test system: Malme-3M
[29] = test system: NCI-H226
[30] = test system: NCI-H23
[31] = test system: NCI-H522
[32] = test system: OVCAR-3
[33] = test system: OVCAR-4
[34] = test system: OVCAR-5
[35] = test system: OVCAR-8
[36] = test system: RXF 393
[37] = test system: SF-268
[38] = test system: SF-295
[39] = test system: SK-MEL-28
[40] = test system: SK-MEL-2
[41] = test system: SK-MEL-5
[42] = test system: SK-OV-3
[43] = test system: SN12C
[44] = test system: SNB-19
[45] = test system: SNB-75
[46] = test system: SR
[47] = test system: SW-620
[48] = test system: TK-10
[49] = test system: U-251
[50] = test system: UACC-257
[51] = test system: UACC-62
[52] = test system: UO-31
[53] = test system: BT-549
[54] = test system: DU-145
[55] = test system: HOP-92
[56] = test system: Hs-578T
[57] = test system: MCF7
[58] = test system: MDA-MB-231
[59] = test system: MDA-MB-435
[60] = test system: MDA-N
[61] = test system: NCI-H460
[62] = test system: NCI/ADR-RES
[63] = test system: PC-3
[64] = test system: RPMI-8226
[65] = test system: SF-539
[66] = test system: SNB-78
[67] = test system: T47D

Question: With O=S(=O)(O)C(O)/C=C/c1ccccc1 (stereo not drawn) as the molecule, how does the GI50 [1] read?
Answer: > 100 µM (inactive)

Question: What about the GI50 [2] of the same molecule?
Answer: > 100 µM (inactive)

Question: And the GI50 [3]?
Answer: > 100 µM (inactive)

Question: And the GI50 [4]?
Answer: > 100 µM (inactive)

Question: What about the GI50 [5] of the same molecule?
Answer: > 100 µM (inactive)

Question: And the GI50 [6]?
Answer: 52.5 µM (inactive)

Question: And the GI50 [7]?
Answer: > 100 µM (inactive)

Question: What about the GI50 [8] of the same molecule?
Answer: > 100 µM (inactive)

Question: What about the GI50 [9] of the same molecule?
Answer: 65.2 µM (inactive)

Question: And the GI50 [10]?
Answer: > 100 µM (inactive)

Question: And the GI50 [11]?
Answer: > 100 µM (inactive)

Question: And the GI50 [12]?
Answer: > 100 µM (inactive)

Question: And the GI50 [13]?
Answer: 78.5 µM (inactive)

Question: What about the GI50 [14] of the same molecule?
Answer: > 100 µM

Question: What about the GI50 [15] of the same molecule?
Answer: > 100 µM (inactive)

Question: And the GI50 [16]?
Answer: > 100 µM (inactive)

Question: What about the GI50 [17] of the same molecule?
Answer: > 100 µM (inactive)

Question: What about the GI50 [18] of the same molecule?
Answer: > 100 µM (inactive)

Question: What about the GI50 [19] of the same molecule?
Answer: > 100 µM (inactive)

Question: And the GI50 [20]?
Answer: > 100 µM (inactive)

Question: And the GI50 [21]?
Answer: > 100 µM (inactive)

Question: What about the GI50 [22] of the same molecule?
Answer: > 100 µM (inactive)

Question: What about the GI50 [23] of the same molecule?
Answer: 49.3 µM (inactive)

Question: And the GI50 [24]?
Answer: > 100 µM (inactive)

Question: And the GI50 [25]?
Answer: > 100 µM (inactive)

Question: What about the GI50 [26] of the same molecule?
Answer: > 100 µM (inactive)

Question: What about the GI50 [27] of the same molecule?
Answer: > 100 µM (inactive)

Question: And the GI50 [28]?
Answer: > 100 µM (inactive)

Question: What about the GI50 [29] of the same molecule?
Answer: > 100 µM (inactive)

Question: What about the GI50 [30] of the same molecule?
Answer: > 100 µM (inactive)

Question: What about the GI50 [31] of the same molecule?
Answer: > 100 µM (inactive)

Question: What about the GI50 [32] of the same molecule?
Answer: > 100 µM (inactive)

Question: What about the GI50 [33] of the same molecule?
Answer: > 100 µM (inactive)

Question: And the GI50 [34]?
Answer: > 100 µM (inactive)

Question: What about the GI50 [35] of the same molecule?
Answer: > 100 µM (inactive)

Question: What about the GI50 [36] of the same molecule?
Answer: > 100 µM (inactive)

Question: And the GI50 [37]?
Answer: > 100 µM (inactive)

Question: And the GI50 [38]?
Answer: > 100 µM (inactive)

Question: And the GI50 [39]?
Answer: > 100 µM (inactive)

Question: What about the GI50 [40] of the same molecule?
Answer: > 100 µM (inactive)

Question: What about the GI50 [41] of the same molecule?
Answer: > 100 µM (inactive)

Question: And the GI50 [42]?
Answer: > 100 µM (inactive)

Question: And the GI50 [43]?
Answer: > 100 µM (inactive)

Question: What about the GI50 [44] of the same molecule?
Answer: > 100 µM (inactive)

Question: What about the GI50 [45] of the same molecule?
Answer: > 100 µM (inactive)

Question: What about the GI50 [46] of the same molecule?
Answer: 26.6 µM (inactive)

Question: And the GI50 [47]?
Answer: > 100 µM (inactive)

Question: And the GI50 [48]?
Answer: > 100 µM (inactive)

Question: What about the GI50 [49] of the same molecule?
Answer: > 100 µM (inactive)

Question: What about the GI50 [50] of the same molecule?
Answer: > 100 µM (inactive)

Question: What about the GI50 [51] of the same molecule?
Answer: > 100 µM (inactive)

Question: And the GI50 [52]?
Answer: > 100 µM (inactive)

Question: O=c1c2ccccc2sc2nc(CCl)nn12 was tested. Which GI50 [1] did it give?
Answer: 12.4 µM (inactive)

Question: And the GI50 [2]?
Answer: 2.64 µM (inactive)

Question: What about the GI50 [3] of the same molecule?
Answer: 31 µM (inactive)

Question: And the GI50 [4]?
Answer: 6.31 µM (inactive)

Question: And the GI50 [53]?
Answer: 27 µM (inactive)

Question: And the GI50 [5]?
Answer: 7.82 µM (inactive)

Question: And the GI50 [6]?
Answer: > 100 µM (inactive)

Question: What about the GI50 [7] of the same molecule?
Answer: 13.1 µM (inactive)

Question: And the GI50 [8]?
Answer: 6.81 µM (inactive)

Question: What about the GI50 [9] of the same molecule?
Answer: 17.6 µM (inactive)

Question: And the GI50 [10]?
Answer: 8.18 µM (inactive)

Question: What about the GI50 [54] of the same molecule?
Answer: 7.78 µM (inactive)

Question: And the GI50 [11]?
Answer: 16 µM (inactive)

Question: And the GI50 [12]?
Answer: 13.3 µM (inactive)

Question: What about the GI50 [13] of the same molecule?
Answer: 4.75 µM (inactive)

Question: And the GI50 [14]?
Answer: 4.6 µM

Question: What about the GI50 [15] of the same molecule?
Answer: 14.5 µM (inactive)

Question: And the GI50 [17]?
Answer: > 100 µM (inactive)

Question: And the GI50 [55]?
Answer: 3.62 µM (inactive)

Question: What about the GI50 [18] of the same molecule?
Answer: 12.4 µM (inactive)

Question: What about the GI50 [56] of the same molecule?
Answer: 2.17 µM (inactive)

Question: What about the GI50 [19] of the same molecule?
Answer: 17.2 µM (inactive)

Question: What about the GI50 [20] of the same molecule?
Answer: 2.32 µM (inactive)

Question: And the GI50 [21]?
Answer: 14.5 µM (inactive)

Question: And the GI50 [22]?
Answer: > 100 µM (inactive)

Question: And the GI50 [23]?
Answer: > 100 µM (inactive)

Question: What about the GI50 [24] of the same molecule?
Answer: 19.5 µM (inactive)

Question: And the GI50 [25]?
Answer: 22 µM (inactive)

Question: And the GI50 [26]?
Answer: 19.7 µM (inactive)

Question: What about the GI50 [57] of the same molecule?
Answer: 3.65 µM (inactive)

Question: What about the GI50 [58] of the same molecule?
Answer: 8.36 µM (inactive)

Question: And the GI50 [59]?
Answer: 8.28 µM (inactive)

Question: What about the GI50 [60] of the same molecule?
Answer: 4.94 µM (inactive)

Question: What about the GI50 [27] of the same molecule?
Answer: 97.5 µM (inactive)

Question: And the GI50 [28]?
Answer: 18.5 µM (inactive)

Question: And the GI50 [29]?
Answer: > 100 µM (inactive)

Question: And the GI50 [30]?
Answer: 7.59 µM (inactive)

Question: And the GI50 [61]?
Answer: 5.64 µM (inactive)

Question: And the GI50 [31]?
Answer: 44.8 µM (inactive)

Question: What about the GI50 [62] of the same molecule?
Answer: > 100 µM (inactive)

Question: What about the GI50 [32] of the same molecule?
Answer: > 100 µM (inactive)

Question: What about the GI50 [33] of the same molecule?
Answer: > 100 µM (inactive)

Question: And the GI50 [34]?
Answer: 24 µM (inactive)

Question: And the GI50 [35]?
Answer: > 100 µM (inactive)

Question: And the GI50 [63]?
Answer: 3.42 µM (inactive)

Question: What about the GI50 [64] of the same molecule?
Answer: > 97.5 µM (inactive)

Question: And the GI50 [36]?
Answer: 6.75 µM (inactive)

Question: What about the GI50 [37] of the same molecule?
Answer: 20.2 µM (inactive)

Question: And the GI50 [38]?
Answer: 43.1 µM (inactive)

Question: What about the GI50 [65] of the same molecule?
Answer: 32.4 µM (inactive)

Question: And the GI50 [39]?
Answer: 10.8 µM (inactive)

Question: And the GI50 [40]?
Answer: 48.4 µM (inactive)

Question: What about the GI50 [41] of the same molecule?
Answer: > 100 µM (inactive)

Question: What about the GI50 [42] of the same molecule?
Answer: 14.8 µM (inactive)

Question: And the GI50 [43]?
Answer: 9.08 µM (inactive)

Question: And the GI50 [44]?
Answer: 77.4 µM (inactive)

Question: And the GI50 [45]?
Answer: 19.2 µM (inactive)

Question: And the GI50 [66]?
Answer: > 68.4 µM (inactive)

Question: What about the GI50 [46] of the same molecule?
Answer: 10.9 µM (inactive)

Question: What about the GI50 [47] of the same molecule?
Answer: 12.7 µM (inactive)

Question: And the GI50 [67]?
Answer: 4.76 µM (inactive)

Question: What about the GI50 [48] of the same molecule?
Answer: 10.4 µM (inactive)

Question: What about the GI50 [49] of the same molecule?
Answer: > 96.8 µM (inactive)

Question: And the GI50 [50]?
Answer: 14 µM (inactive)

Question: What about the GI50 [51] of the same molecule?
Answer: 5.46 µM (inactive)

Question: What about the GI50 [52] of the same molecule?
Answer: 8.28 µM (inactive)
